From ChEMBL document CHEMBL1152558, “A critical electrostatic interaction mediates inhibitor recognition by human asparagine synthetase” (Bioorg Med Chem, 2009)
Activity calls are given as the source filed them. The rule behind the calls is not given here.

What was measured:
[1] = biological target: T1, Asparagine synthetase [glutamine-hydrolyzing] (Homo sapiens, UniProt P08243); experiment: Inhibition of human recombinant ASNS expressed in Sf9 insect cells
T1 sequence (P08243 whole entry): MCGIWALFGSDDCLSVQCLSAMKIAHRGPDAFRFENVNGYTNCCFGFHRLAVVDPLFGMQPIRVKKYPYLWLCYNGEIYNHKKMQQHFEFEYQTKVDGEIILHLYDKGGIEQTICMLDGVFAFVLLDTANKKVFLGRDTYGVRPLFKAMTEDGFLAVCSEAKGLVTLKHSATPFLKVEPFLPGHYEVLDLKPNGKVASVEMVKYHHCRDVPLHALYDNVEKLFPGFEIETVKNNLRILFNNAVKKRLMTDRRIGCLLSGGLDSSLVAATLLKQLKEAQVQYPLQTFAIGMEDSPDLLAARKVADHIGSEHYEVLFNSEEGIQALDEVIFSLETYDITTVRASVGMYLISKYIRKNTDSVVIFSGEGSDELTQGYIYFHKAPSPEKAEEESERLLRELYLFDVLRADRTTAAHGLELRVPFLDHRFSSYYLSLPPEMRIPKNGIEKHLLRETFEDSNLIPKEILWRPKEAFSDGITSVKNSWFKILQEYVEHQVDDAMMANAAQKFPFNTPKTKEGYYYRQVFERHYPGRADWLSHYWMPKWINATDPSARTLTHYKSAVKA

[2] = biological target: T1, Asparagine synthetase [glutamine-hydrolyzing]; experiment: Inhibition of human recombinant ASNS expressed in Sf9 insect cells assessed as overall inhibition constant
[3] = biological target: T2, Asparagine synthetase [glutamine-hydrolyzing] (Homo sapiens) (UniProt P08243); experiment: Inhibition of human recombinant ASNS expressed in Sf9 insect cells assessed as inorganic phosphate production in ammonia-dependent asparagine synthesis using continuous assay
T2 sequence (whole entry): T1 sequence (P08243 whole entry)

[4] = biological target: T2, Asparagine synthetase [glutamine-hydrolyzing] (Homo sapiens); experiment: Inhibition of human recombinant ASNS expressed in Sf9 insect cells assessed as inorganic phosphate production in glutamine-dependent asparagine synthesis using continuous assay

Row | Ki [1] [µM] | Ki [2] [µM] | Activity [3] | Activity [4] | SMILES
1 | 20 | 10 | – | – | C[S+]([O-])(C[C@H](N)C(=O)O)=NP(=O)(O)OC[C@H]1O[C@@H](n2cnc3c(N)ncnc32)[C@H](O)[C@@H]1O (some centres undefined)
2 | – | – | inactive | inactive | C[S+]([O-])(CC(N)C(=O)O)=NS(=O)(=O)NC[C@H]1O[C@@H](n2cnc3c(N)ncnc32)[C@H](O)[C@@H]1O (mixture of isomers)
